Data on four compounds can be found in US8519110B2, “mRNA cap analogs” (Board of Supervisors of Louisiana State University And …, priority 2008, dated 2013).

Like-named read-outs stand apart in the source and are kept apart here.

For series [1], the target named is cap-dependent translation of luciferase mRNA in reticulocyte lysate. In words: Inhibition of cap-dependent translation in vitro by free cap analogs. The class given is biochemical, rabbit. As to the method: In vitro translation reactions were performed in 12.5 μl for 60 min at 30° C. under conditions favorable for cap-dependent translation. In some cases, the reaction mixture was incubated for 60 min at 30° C. prior to adding the dinucleotide cap analog (inhibitor) and m2^7,3′-OGppG-capped luciferase mRNA to start translation. In other cases, to analyze biological stability, the cap analog was incubated in the translation mixture for 60 min at 30° C. prior to adding the luciferase mRNA to start translation. A typical reaction mixture contained 56% reticulocyte lysate, the 20 “standard” amino acids (0.01 mM each), MgCl2 (1.2 mM), potassium acetate (170 mM), RiboLock Ribonuclease Inhibitor (0.32 U/μl), cap analog solution ( 1/10 of total reaction volume), and m2^7,3′-OGpppG-capped luciferase RNA. […] Reactions were performed with cap analog concentrations ranging from 0.12 to 100 μM. Luciferase activity was measured in a luminometer. […] The program OriginPro8 (OriginLab) was used for curve fitting with the equation qLUC=Z/(1+I/IC50)+N, where qLUC is the activity of luciferase synthesized in the presence of cap analog, Z is the activity of luciferase synthesized in the absence of cap analog, N is the activity of luciferase synthesized in a cap-independent manner, and I is the cap analog concentration.
Two type of experiments were carried out. In one set of experiments (condition A), a cap analog was added to the translation system together with luciferase mRNA. In the other set of experiments (condition B), the cap analog was incubated in the translation system for 60 min before addition of mRNA. […] There was a correlation between the resistance to hydrolysis by DcpS and the stability of analogs in the translation system.

Series [2] in a line: Chemical stability in solution and on storage. The class given is physicochemical. Here is the method: FIG. 5 depicts the synthesis of m2^7,2′-OGppSepG. The selenophosphate (PSeO3^−3) was prepared by a modification of the method described in R. Glass et al., “Selenophosphate,” Meth. Enzymol., vol. 252, pp. 309-315 (1995). Trimethylsilyl phosphite was treated with selenium in pyridine to give trimethylsilyl selenophosphate, which was then desilylated by methanol in the presence of triethylamine to give the selenophosphate triethylammonium salt. This compound was coupled with the imidazolide derivative of 7,2′-O-dimethylguanosine 5′-monophosphate (m2^7,2′-OGMP-Im) to give 7,2′-O-dimethylguanosine 5′-O-(2-selenodiphosphate) (m2^7,2′-OGDPβSe). […] The reaction was very rapid; essentially 100% conversion of m2^7,2′-OGMP-Im into m2^7,2′-OGDPβSe was observed by RP HPLC after 15 min. […] Thus, care was taken to maintain the pH at 7 or above during purification of m2^7,2′-OGDPβSe, which allowed the product to be isolated with 80% yield after ion-exchange chromatography. The m2^7,2′-OGDPβSe was then coupled with the imidazolide derivative of GMP in the presence of excess ZnCl2. Two peaks were observed by RP HPLC, corresponding to two m2^7,2′-OGppSepG diastereomers, which were designated D1 and D2 according to their elution order. However, the coupling proceeded slowly, and complete disappearance of m2^7,2′-OGDPβSe took about two days. The extended reaction time allowed partial hydrolysis of m2^7,2′-OGDPβSe to m2^7,2′-OGMP, and only a moderate reaction yield (40% conversion by HPLC, 25% isolated). The diastereomeric mixture of m2^7,2′-OGppSepG after isolation by ion-exchange chromatography was successfully resolved into pure diastereomers by RP HPLC. The products were characterized by mass spectrometry, ^1H NMR, and ^31P NMR to confirm structures and homogeneity.

The subject of series [3] is rabbit reticulocyte lysate system. In words: In vitro translation efficiency of capped luciferase mRNA, method I transcripts. Type of series: biochemical. As to conditions: for Translation efficiency in comparison with m^7GpppG-LUC mRNA, Experiment No. 2: experiment 2; for Translation efficiency in comparison with m^7GpppG-LUC mRNA, Experiment No. 3: experiment 3; for Translation efficiency in comparison with m^7GpppG-LUC mRNA, Experiment No. 4: experiment 4; for Translation efficiency in comparison with m^7GpppG-LUC mRNA, Mean: mean of experiments; for In vitro translational efficiency, method I: relative to m^7GpppG-capped luciferase mRNA = 1.0. As to the method:
A DNA template for in vitro transcription was synthesized by PCR from the plasmid SP6p-5′UTR β-globin-LUCiferase. The template contained the SP6 promoter followed by the 5′-UTR sequence of rabbit β-globin mRNA and the entire firefly luciferase mRNA coding region. A typical in vitro transcription reaction mixture (50 μl) contained SP6 transcription buffer (Fermentas, cat. no. EP0131), 2 μg of DNA template, 2 U/μl RiboLock Ribonuclease Inhibitor (Fermentas), 2 mM each of ATP, CTP, and UTP, 0.1 mM GTP, and 1 mM dinucleotide cap analog. The reaction mixture was incubated at 37° C. for 5 min before the addition of SP6 RNA polymerase (Fermentas) to a final concentration of 2 U/μl. After 30 min of incubation at 37° C., GTP was added to a final concentration of 1 mM, and the reaction continued for an additional 90 min. The reaction mixtures were then treated with 1 U of DNase RQ1 (RNAse-free, Promega) per μg of template DNA in transcription buffer at 37° C. for 20 min. RNA transcripts were purified on DEPC-treated Sephadex G-50 spin columns (Pharmacia). The integrity of transcripts was confirmed by electrophoresis on a non-denaturating, 1% agarose gel. Concentrations were determined spectrophotometrically. The transcripts were stored at −80° C. until used.
A micrococcal nuclease-treated rabbit reticulocyte lysate system (Flexi Rabbit Reticulocyte Lysate System, Promega) was used for in vitro translation. Translation reactions were performed in 10 μl for 60 min at 30° C. A typical reaction mixture contained 40% reticulocyte lysate, the 20 “standard” amino acids (0.01 mM each), MgCl2 (1.2 mM), potassium acetate (170 mM), and mRNA (five different concentrations of each transcript, ranging from 0.25 to 4 μg/ml). Luciferase activity was measured in a luminometer (Glomax, Promega). Linear regression was used to fit the data points (luciferase activity versus concentration of mRNA transcript), and translational efficiency was defined as the slope of this line. The relative translational efficiencies of the test mRNAs were compared to that of m^7GpppG-capped luciferase mRNA, the latter being defined as 1.0.

Where [4] appears, read: Table 3, cap analog added together with mRNA, read-out: Inhibition of in vitro translation (IC50), condition A.
Setting [5] is: Table 3, cap analog preincubated 60 min in lysate, read-out: Inhibition of in vitro translation (IC50), condition B.
Setting [6] is: cap analog added together with luciferase mRNA, read-out: Inhibition of in vitro translation (IC50), condition A.
Where [7] appears, read: cap analog incubated in translation system 60 min before addition of mRNA, read-out: Inhibition of in vitro translation (IC50), condition B.

As a reminder, the IC50 is the concentration at which inhibition is half-maximal. In the case of `CO[C@@H]1[C@H](O)[C@@H](COP(=O)(O)OP(O)(=[Se])OP(=O)(O)OC[C@H]2O[C@@H](n3cnc4c(=O)[nH]c(N)nc43)[C@H](O)[C@@H]2O)O[C@H]1n1c[n+](C)c2c(=O)[nH]c(N)nc21` (single isomer, unassigned) [m2^7,2′-OGppSepG (D2), m2^7,2′-OGppSepG], the figures for the IC50 in series [1] (setting [4]) and in series [1] (setting [5]) were 3.9 ± 0.5 µM and 11.4 ± 7.2 µM, respectively. Further, the “Stability in aqueous solution” value in series [2] is “stable in aqueous solution”.

Turning to `Cn1c[n+]([C@@H]2O[C@H](COP(=O)(O)OP(=O)(O)OP(=O)(O)OC[C@H]3O[C@@H](n4cnc5c(=O)[nH]c(N)nc54)[C@H](O)[C@@H]3O)[C@@H](O)[C@H]2O)c2nc(N)[nH]c(=O)c21` [m^7GpppG, m^7G(5′)ppp(5′)G, reference compound], the IC50 in series [1] (setting [4]) came to 8.3 ± 0.2 µM. Also, in series [1] (setting [5]), the IC50 turned out to be 35.1 ± 10.8 µM. Besides, the IC50 in series [1] (setting [6]) came to 8.3 ± 0.2 µM. The IC50 in series [1] (setting [7]) was determined as 35.1 ± 10.8 µM. Also, in series [3] (experiment 1), the “Translation efficiency in comparison with m^7GpppG-LUC mRNA, Experiment No. 1” value was determined as 1.00. In addition, in series [3], the “Translation efficiency in comparison with m^7GpppG-LUC mRNA, Experiment No. 2” value is 1.00; the “Translation efficiency in comparison with m^7GpppG-LUC mRNA, Experiment No. 3” value turned out to be 1.00; the “Translation efficiency in comparison with m^7GpppG-LUC mRNA, Experiment No. 4” value is given as 1.00; the “Translation efficiency in comparison with m^7GpppG-LUC mRNA, Mean” value turned out to be 1.00. The “In vitro translational efficiency, method I” value in series [3] is 1.00.

For the compound m^7GppBH3pm^7G, the IC50 in series [1] (setting [6]) is 3 ± 0.1 µM. Moreover, in series [1] (setting [7]), the IC50 was found to be 3 ± 0.2 µM. Further, in series [3], the “Translation efficiency in comparison with m^7GpppG-LUC mRNA, Experiment No. 2” value is given as 2.63; the “Translation efficiency in comparison with m^7GpppG-LUC mRNA, Experiment No. 3” value amounted to 2.91; the “Translation efficiency in comparison with m^7GpppG-LUC mRNA, Experiment No. 4” value worked out at 2.89; the “Translation efficiency in comparison with m^7GpppG-LUC mRNA, Mean” value is given as 2.81. Also, the “In vitro translational efficiency, method I” value in series [3] was 2.81 ± 0.16.

For the compound `CO[C@@H]1[C@H](O)[C@@H](COP(=O)(O)OP(O)(=[Se])OP(=O)(O)OC[C@H]2O[C@@H](n3cnc4c(=O)[nH]c(N)nc43)[C@H](O)[C@@H]2O)O[C@H]1n1c[n+](C)c2c(=O)[nH]c(N)nc21` (single isomer, unassigned) [m2^7,2′-OGppSepG (D1), m2^7,2′-OGppSepG], the IC50 in series [1] (setting [4]) came to 8.4 ± 1.4 µM; in series [1] (setting [5]) it was 14.7 ± 1.6 µM. Further, the “Stability in aqueous solution” value in series [2] is listed as “stable in aqueous solution”.
